Measured values taken from patent US11498923B2 (Merck Sharp & Dohme Corp., priority 2017, dated 2022).

The compounds below were run against T1, human A2a receptor (Homo sapiens, UniProt P29274) (assay: A2a receptor competition binding assay (Scintillation Proximity)). Conditions: A2a Ki, membranes from HEK293 cells expressing human A2a receptor; 0.5 nM tritiated ligand; Cheng-Prusoff.
T1 construct: purchased Perkin-Elmer RBHA2AM400UA; host or cells: HEK293 cells, used as a membrane preparation
Procedure: Binding affinities of compounds of the invention for the human A2a receptor were determined in a competition binding assay using Scintillation Proximity technology. Thus, 0.3 μg of membranes from HEK293 cells expressing the human A2a receptor were incubated with a compound of the invention at concentrations ranging from 3000 nM to 0.15 nM in a reaction mixture containing also 0.5 nM of a tritiated form of 5-amino-7-[2-phenethyl]-2-(furan-2-yl)-7H-pyrazolo[4,3-e][1,2,4]triazolo[1,5-c]pyrimidine (the tritiated compound) and 100 μg of wheat germ agglutin-coated yttrium silicate SPA beads for one hour at room temperature with agitation. The beads were then allowed to settle to the bottom of the wells for 1 hr, after which the membrane-associated radioactivity was determined by scintillation counting in a TopCount microplate reader. Ki values were determined using the Cheng-Prusoff equation.
Summary of Materials and Methods Used in A2a Activity Determination:
HEK293 cells expressing the human, rat, dog or monkey adenosine 2a receptor (Purchased from Perkin-Elmer #RBHA2AM400UA).
The Tritiated compound was prepared according to published methods.
Wheat germ agglutinin-coated yttrium silicate SPA beads (GE Healthcare #RPNQ0023). Dilute to 25 mg/ml in assay buffer.
Assay Buffer was prepared using Dulbecco's calcium and magnesium free phosphate buffered saline+10 mMMgCl2
Adenosine deaminase from calf intestine, 10 mg/2 ml (Roche #10 102 105 001).
A2a antagonist standard (9-chloro-1-(2-furanyl)-[1,2,4]triazolo1,5-c]quinazolin-5-amine from Tocris Bioscience)
Make eight 1:3 serial dilutions in 100% DMSO from a 3 mM compound stock
Transfer 50 nl of compound into a 384-well OptiPlate (Perkin Elmer).
Typically, final concentrations of compound used in the assay ranged from 3000 nM to 0.152 nM.
Dilute a solution of the Tritiated compound to 1.25 nM in assay buffer. This is a 2.5× solution. The final concentration in the assay is 0.5 nM. Calculate the concentration by counting two 5 μl aliquots.
Use 0.25 ug of membrane/well. Dilute membranes to 9.7 μg/ml in assay buffer. Treat with 20 ug/ml adenosine deaminase (ADA) for 15 minutes at room temperature to degrade endogenous adenosine.
Use 100 μg/well wheat germ agglutinin-coated yttrium silicate SPA beads.
Mix ADA-treated membranes and SPA beads together for 30 min prior to assay.
To the Perkin-Elmer Optiplate-384 containing the compound titration add 20 μl of 2.5× solution of the Tritiated compound and 30 μl of the membrane-bead mixture. Incubate for one hour at room temperature with agitation.
Include total binding (assay buffer+1% DMSO) and non-specific binding (CGS15943, 1 μM) wells.
Allow the beads to settle for one hour.
A curve fitting program (i.e., Prism, Activity Base, Chemcart) is used to determine the EC50. The Ki value is calculated using the Cheng-Prusoff equation. Ki=EC50/(1+(radioligand concentration/Kd))

T1 sequence (P29274 whole entry): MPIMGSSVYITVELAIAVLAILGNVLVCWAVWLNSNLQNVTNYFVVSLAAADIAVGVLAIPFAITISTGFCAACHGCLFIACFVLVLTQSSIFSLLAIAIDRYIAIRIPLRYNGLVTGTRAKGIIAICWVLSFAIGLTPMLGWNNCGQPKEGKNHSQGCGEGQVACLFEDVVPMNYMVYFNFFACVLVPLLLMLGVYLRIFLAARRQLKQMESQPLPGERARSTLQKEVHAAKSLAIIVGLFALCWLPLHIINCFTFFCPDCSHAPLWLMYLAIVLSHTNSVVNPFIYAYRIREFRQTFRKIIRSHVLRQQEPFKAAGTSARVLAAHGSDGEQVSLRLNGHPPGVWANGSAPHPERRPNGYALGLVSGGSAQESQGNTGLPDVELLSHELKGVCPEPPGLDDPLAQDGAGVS

| Structure (SMILES) | Ki [nM] |
| --- | --- |
| COc1cccc2c1nc(N)n1cc(C(=O)N3C4CCC3COC4)nc21 [Ex-224, (5-amino-7-methoxyimidazo[1,2-c]quinazolin-2-yl)(3-oxa-8-azabicyclo[3.2.1]octan-8-yl)methanone] | 8.2 |

Same assay, conditions: membranes from HEK293 cells expressing human A2a receptor; 0.5 nM tritiated ligand; Cheng-Prusoff; read-out: A2a Ki

| Structure (SMILES) | Ki [nM] |
| --- | --- |
| Nc1nc2c(F)cccc2c2nc(Cc3cccc4cccnc34)cn12 [Ex-32, 7-fluoro-2-(quinolin-8-ylmethyl)imidazo[1,2-c]quinazolin-5-amine] | 2 |
| COc1cccc2c1nc(N)n1cc(C(=O)N(C)Cc3cccc4cccnc34)nc21 [Ex-159, 5-amino-7-methoxy-N-methyl-N-(quinolin-8-ylmethyl)imidazo[1,2-c]quinazoline-2-carboxamide] | 5.9 |
| COc1cccc2c1nc(N)n1cc(Cc3ccc(C(=O)Nc4ccccc4)cc3)nc21 [Ex-89, 4-((5-amino-7-methoxyimidazo[1,2-c]quinazolin-2-yl)methyl)-N-phenylbenzamide] | 6.3 |
| CC(=O)N1CCc2cc(Cc3cn4c(N)nc5c(F)cccc5c4n3)ccc2C1 [Ex-47, 1-(6-((5-amino-7-fluoroimidazo[1,2-c]quinazolin-2-yl)methyl)-3,4-dihydroisoquinolin-2(1H)-yl)ethan-1-one] | 5.9 |
| COc1cccc2c1nc(N)n1cc(Cc3ccccc3C(F)(F)F)nc21 [Ex-17, 7-methoxy-2-(2-(trifluoromethyl)benzyl)imidazo[1,2-c]quinazolin-5-amine] | 0.8 |
| COc1ccc2c(c1)nc(N)n1cc(Cc3ccccc3)nc21 [Ex-03, 2-benzyl-8-methoxyimidazo[1,2-c]quinazolin-5-amine] | 2.6 |
| Nc1nc2c(F)cccc2c2nc(Cc3cc(F)ccc3O)cn12 [Ex-37, 2-((5-amino-7-fluoroimidazo[1,2-c]quinazolin-2-yl)methyl)-4-fluorophenol] | 18 |
| COc1cccc2c1nc(N)n1cc(Cc3c(O)cccc3F)nc21 [Ex-31, 2-((5-amino-7-methoxyimidazo[1,2-c]quinazolin-2-yl)methyl)-3-fluorophenol] | 2.1 |
| Nc1nc2c(F)cccc2c2nc(CN3CCOc4ccccc43)cn12 [Ex-117, 2-((2,3-dihydro-4H-benzo[b][1,4]oxazin-4-yl)methyl)-7-fluoroimidazo[1,2-c]quinazolin-5-amine] | 4 |
| Nc1nc2c(F)cccc2c2nc(Cc3cccc(Cc4ccccc4)c3)cn12 [Ex-34, 2-(3-benzylbenzyl)-7-fluoroimidazo[1,2-c]quinazolin-5-amine] | 21 |
| Nc1nc2ccccc2c2nc(Cc3ccccc3)cn12 [Ex-02, 2-benzylimidazo[1,2-c]quinazolin-5-amine] | 5.8 |
| CCCN1CCc2c(Cc3cn4c(N)nc5c(F)cccc5c4n3)cccc2C1 [Ex-56, 7-fluoro-2-((2-propyl-1,2,3,4-tetrahydroisoquinolin-5-yl)melhyl)imidazo-[1,2-c]quinazolin-5-amine] | 16 |
| COc1cccc2c1nc(N)n1cc(Cc3ccccc3N(C)C)nc21 [Ex-20, 2-(2-(dimethylamino)benzyl)-7-methoxyimidazo[1,2-c]quinazolin-5-amine] | 1.4 |
| CN(Cc1cccc2cccnc12)C(=O)c1cn2c(N)nc3c(F)cccc3c2n1 [Ex-162, 5-amino-7-fluoro-N-methyl-N-(quinolin-8-ylmethyl)imidazo[1,2-c]quinazoline-2-carboxamide] | 29.7 |
| COc1cccc2c1nc(N)n1cc(C(=O)N3CCCC(C)CC3)nc21 (centres unmarked) [Ex-176, (5-amino-7-methoxyimidazo[1,2-c]quinazolin-2-yl)(4-methylazepan-1-yl)methanone] | 10 |
| COc1cccc2c1nc(N)n1cc(Cc3cccnc3Cl)nc21 [Ex-38, 2-((2-chloropyridin-3-yl)methyl)-7-methoxyimidazo[1,2-c]quinazolin-5-amine] | 2.3 |
| CC1(O)CCN(Cc2cn3c(N)nc4ccccc4c3n2)CC1 [Ex-109, 1-((5-aminoimidazo[1,2-c]quinazolin-2-yl)methyl)-4-methylpiperidin-4-ol] | 2460 |

More lines, now with the values ahead:

| Ki [nM] | Structure (SMILES) |
| --- | --- |
| 6.1 | Nc1nc2c(F)cccc2c2nc(C(=O)NCc3ccccc3CN3CCOCC3)cn12 [Ex-255, 5-amino-7-fluoro-N-(2-(morpholinomethyl)benzyl) imidazo[1,2-c]quinazoline-2-carboxamide] |
| 4.5 | COc1cccc2c1nc(N)n1cc(C(=O)N3CCCC(C)(C)C3)nc21 [Ex-189, (5-amino-7-methoxyimidazo[1,2-c]quinazolin-2-yl)(3,3-dimethylpiperidin-1-yl)methanone] |
| 260 | COc1cccc2c1nc(N)n1cc(C(=O)N3CCC(=O)C(C(C)C)C3)nc21 (centres unmarked) [Ex-199, 1-(5-amino-7-methoxyimidazo[1,2-c]quinazoline-2-carbonyl)-3-isopropylpiperidin-4-one] |
| 5.2 | COc1cccc2c1nc(N)n1cc(C(=O)N3CCC4(CCCC4)CC3)nc21 [Ex-202, (5-amino-7-methoxyimidazo[1,2-c]quinazolin-2-yl)(8-azaspiro[4.5]decan-8-yl)methanone] |
| 29 | COC(=O)C1CCN(C(=O)c2cn3c(N)nc4c(OC)cccc4c3n2)CC1 [Ex-226, methyl 1-(5-amino-7-methoxyimidazo[1,2-c]quinazoline-2-carbonyl]piperidine-4-carboxylate] |
| 2.9 | COc1cccc2c1nc(N)n1cc(C(=O)N3CCCC3C(C)C)nc21 (centres unmarked) [Ex-209, (5-amino-7-methoxyimidazo[1,2-c]quinazolin-2-yl)(2-isopropylpyrrolidin-1-yl)methanone] |
| 5.4 | Nc1nc2c(F)cccc2c2nc(C(=O)NCc3ccccc3N3CCNCC3)cn12 [Ex-261, 5-amino-7-fluoro-N-(2-(piperazin-1-yl)benzyl)imidazo[1,2-c]quinazoline-2-carboxamide] |
| 4.3 | COc1cccc2c1nc(N)n1cc(C(=O)N3CCCC4(CC4)C3)nc21 [Ex-242, (5-amino-7-methoxyimidazo[1,2-c]quinazolin-2-yl)(5-azaspiro[2.5]octan-5-yl)methanone] |
| 170 | COc1cccc2c1nc(N)n1cc(C(=O)N3CCC(=O)C3)nc21 [Ex-238, 1-(5-amino-7-methoxyimidazo[1,2-c]quinazoline-2-carbonyl)pyrrolidin-3-one] |
| 13 | COc1cccc2c1nc(N)n1cc(C(=O)N3CCCC4(CCCO4)C3)nc21 (centres unmarked) [Ex-205, (5-amino-7-methoxyimidazo[1,2-c]quinazolin-2-yl)(1-oxa-7-azaspiro[4.5]decan-7-yl)methanone] |
| 45 | Nc1nc2c(F)cccc2c2nc(CC3CCN(Cc4ccccc4)CC3)cn12 [Ex-304, 2-((1-benzylpiperidin-4-yl)methyl)-7-fluoro-imidazo[1,2-c]quina-zolin-5-amine] |
| 48 | Cc1ccc(CN2CCC(Cc3cn4c(N)nc5c(F)cccc5c4n3)CC2)cc1 [Ex-312, 7-fluoro-2-((1-(4-methylbenzyl)piperi-din-4-yl)methyl)-imidazo-[1,2-c]-quinazolin-5-amine] |
| 45 | Nc1nc2c(F)cccc2c2nc(CC3CCN(Cc4cccs4)CC3)cn12 [Ex-306, 7-fluoro-2-((1-(thio-phen-2-ylmethyl)-piperidin-4-yl)methyl)-imidazo[1,2-c]quina-zolin-5-amine] |
| 30 | COc1ccnc(C(=O)N2CCC(Cc3cn4c(N)nc5c(F)cccc5c4n3)CC2)c1 [Ex-320, (4-((5-amino-7-fluoroimidazo[1,2-c]quinazolin-2-yl)-methyl)piperidin-1-yl)(4-methoxypyridin-2-yl)methanone] |
| 220 | Nc1nc2c(F)cccc2c2nc(C(=O)N3CCCC4(CCNC4)C3)cn12 (centres unmarked) [Ex-266, (5-amino-7-fluoroimidazo[1,2-c]quinazolin-2-yl)(2,7-diazaspiro[4.5]decan-7-yl)methanone] |
| 6.4 | COc1cccc2c1nc(N)n1cc(C(=O)N3C[C@@H]4[C@@H]5CC[C@@H](C5)[C@@H]4C3)nc21 [Ex-236, (5-amino-7-methoxyimidazo[1,2-c]quinazolin-2-yl)((3aR,4R,7S,7aS)-octahydro-2H-4,7-methanoisoindol-2-yl)methanone] |

Same assay, conditions: value printed in the synthesis text as 'A2a=' without quantity name; read-out: A2a

| Ki [nM] | Structure (SMILES) |
| --- | --- |
| 8.4 | Nc1nc2c(F)cccc2c2nc(Cc3ccc4c(c3)CN(C(=O)c3ccccc3)C4)cn12 [L-005052550, (5-((5-amino-7-fluoroimidazo[1,2-c]quinazolin-2-yl)methyl)isoindolin-2-yl)(phenyl)methanone] |
